Each structure is given as a SMILES string. Where only a bound is given, the exact number is not on record here.

Data set [1] concerns Salmonella typhimurium TA 100. In words: Mutagenicity, reversion assay, TA 100. It is filed as cell-based. Conditions: 5,000 μg/plate; control 149. The protocol:
(§1) (ii) The strains TA 98 and TA 100 (both are histidine requiring) of Salmonella typhimurium were used in the reversion assay.
(§2) Into 2 ml of a soft agar culture medium (the medium itself contains 6 g of sodium chloride and 6 g of agar in 1000 ml of distilled water) to which one tenth by volume of an aqueous solution of 0.5 mM of biotin and 0.5 mM of histidine had been added, 0.1 ml of the bacterial suspension and 0.1 ml of an aqueous solution of the present substance were admixed and the mixture was layered on the minimum agar culture medium. After 2 days of incubation at 37° C., the number of revertant colonies was counted. Furylfuramide (AF-2) was used as the positive control.

A short description of data set [2]: Acute oral toxicity (Litchfield-Wilcoxon). Conditions: in vivo, mouse, 7 days. Here is the method:
The acute oral toxicity of the present substances were examined by using groups of ICR-JCL mouse and orally administering each of the representatives of present substances forcibly as an aqueous solution in distilled water or as an aqueous suspension also in distilled water at predetermined dosages, respectively. After observing the toxicological symptoms, if any, for 6 days, and recording the mortality until 7th day of the administration, LD50 (acute oral) was calculated by the method of Litchfield-Wilcoxon, and autopsy was carried out on dead mice and live mice to obtain informations.

In data set [3] the test system is male SHR rats. The data set can be described thus: Blood pressure and 6-keto PGF1-α in blood of SHR after 14 days. It is filed as in vivo, rat (SHR). Conditions: 100 mg/kg/day p.o.; for Content of 6-keto-PGF1-α in blood: control 3; for Blood pressure: control 195. The protocol: After forcibly administering the present substance (Specimens Nos. 4, 7 and 8) every day for successive 14 days at a rate of 100 mg/kg/day by oral route to groups of male SHR rats, their whole blood was collected on 15th day to obtain the plasma fraction. The ether-extract of the plasma fraction was separated and isolated by thin-layer chromatography and after converting the isolated fraction into methyloximesilyl derivatives, the alteration of 6-keto PGF1-α was examined by gas-chromatography and mass-spectroscopy. In the group to which the present substance was administered, the content of 6-keto PGF1-α was larger together with the reduced blood pressure than in control. This parallelism of the effects leads to the presumption that the effect of the present invention is mediated by prostaglandin.

Data set [4] has as its system platelets (3 times concentrated PRP), cyclic AMP. The data set can be described thus: Level of cyclic AMP in platelets. Format: cell-based. Conditions: room temperature, 5 min. Here is the method:
PRP (platelet rich plasma) was prepared by the predetermined method and it was centrifugated for 20 min at 700XG to obtain a supernatant liquid named PPP (platelet poor plasma). The precipitate was re-floated in 1/3 times by volume of PPP to prepare 3 times concentrated PRP.
In the thus prepared concentrated PRP, each aqueous solution of the present substances of a pre-determined concentration (in this case, Specimens Nos. 4, 7 and 8) and an aqueous physiological saline solution, and the mixture was incubated at room temperature for 5 min. Then, the procedures of boiling, homogenating and centrifugating were carried out in this order, and 50 μl of the supernatant liquid was used for measuring cyclic AMP. The measurement was carried out following the method of Gilman. As a positive control, PGE1 was used.

For the next data set, the system named is thoracic aorta, PGI2. The data set can be described thus: PGI2 production in arterial tissue of diabetic rats. Format: in vivo, male Sprague-Dowley rats. The settings on record: 100 mg/kg p.o., diabetic rat; not administered 0.07, normal 0.26. The protocol:
Groups of male Sprague-Dowley rats of body weight of about 200 g are used for the present experiments. Some groups of the rats were intravenously administered with streptozotocin at 80 mg/kg one to three months in advance of the beginning of the present experiment to be in a state of diabetes mellitus. Those rats of the same strain, the same sex and the same age without being administered with streptozotocin were used as control.
The present substances (Specimens Nos. 4, 7 and 8) were respectively administered to the groups of rats suffering from the artificial diabetes mellitus forcibly by oral route at a rate of 100 mg/kg as an aqueous solution in distilled water.
In the next place, the amount of prostaglandin I2 produced in the arterial tissue was measured as follows:
Thoracic aorta of the rat was rapidly extirpated, washed with Krebs' buffer solution at a temperature of 4° C. and cut into thin rings of 1 to 2 mg in weight. Then, into 200 microliters of Krebs' buffer solution, 60 mg of the thus cut aorta were added and the mixture was incubated for 3 min at 22° C.
The amount of prostaglandin I2 (PGI2) produced by the cut aorta was determined on the supernatant liquid (1 to 10 microliters) of the above-mentioned incubated culture in the same manner as in Example 2 using the suppressing action of platelet aggregation as an index, however, using adenosine diphosphate as the agglutinating agent. After preparing a standard calibration curve using an authentic specimen of PGI2, the content of PGI2 of the above-mentioned supernatant liquid was obtained from the standard curve in ng/mg of wet weight of the arterial tissue.

The test system of a further data set is dog's stomach. Format: in vivo, Beagle dog. Conditions: dog, in vivo. The protocol: Five grams of the present substance (each of Specimens Nos. 1, 2, 3, 4, 5, 6, 7, 8, 9, 10 and 11) and of aspirin were respectively administered to each Beagle of body weight of 9 to 12 kg as an aqueous suspension in distilled water of adjusted pH of 3, and after 90 min of the administration, the state of hemorrhage in the dog's stomach was examined.

A further data set concerns male Sprague-Dowley rats. The data set can be described thus: Leakage of dye-staff after skin stimulation with histamine and PGE1. Format: in vivo. The settings on record: 1000 mg/kg p.o.; with histamine + PGE1. The protocol: To the three groups of male Sprague-Dowley rats of the total six groups, the respective present substances (Specimens Nos. 4, 7 and 8) were forcibly administered by oral route at the rate of 1000 mg/kg, the other three groups being administered nothing at this time. After 60 min of the administration, a mixture of PGE1 (2.5×10^-11 mol/animal) and histamine (2×10^-8 mol/animal) was intracutaneously injected under light […] into the shaved skin of an abdominal part of four groups of the rats including three groups administered with the present substance.

For data set [5], the system named is Salmonella typhimurium TA 98. The data set can be described thus: Mutagenicity, reversion assay, TA 98. It is filed as cell-based. The settings on record: 5,000 μg/plate; control 13. The protocol:
as §1, §2

For data set [6], the system named is male SHR rats. The data set can be described thus: Effect of aspirin on the hypotensive action. The settings on record: 100 mg/kg p.o., after 6 hours; for Alteration of blood pressure, Case (b): with aspirin 200 mg/kg before and after; for Alteration of blood pressure, Case (a): without aspirin. It is filed as in vivo, rat (SHR). The protocol:
It is known that PGs are produced from arachidonic acid and the conversion of arachidonic acid into PGG2 is mediated by cyclooxygenase. Also it is known that aspirin inactivates cyclooxygenase, and that the […] of PGs is completely stopped by the administration of aspirin to a mammal.
Accordingly, the following experiment was carried out: To groups of male SHR rats of 30 to 40 weeks after birth, (a) one of the present substance was forcibly administered orally at 100 mg/kg as a solution in distilled water or an aqueous suspension in 2% solution of carboxymethylcellulose or (b) aspirin was forcibly administered orally, before and after one hour of the administration of the present substance, at 200 mg/kg. The blood pressure of the thus treated rats was measured with the time passage.

In general, LD50 refers to the dose expected to kill half of the subjects tested. For the molecule `O=C(O)c1ccc(NC2O[C@H](CO)[C@@H](O)[C@H](O)[C@@H]2O)cc1` (stereo partly drawn) [Specimen No. 4, Sodium p-aminobenzoate-N--D-mannoside], the “Number of revertant colonies TA 100” value in data set [1] was 138 number per plate. The LD50 at 168 h in data set [2] is above 10000 mg/kg. In the data set with male SHR rats [3], the “Content of 6-keto-PGF1-α in blood” value came to 7 ng/mL and the Blood pressure was determined as 155 mmHg. Also, in data set [4], the “level of intra-platelet cyclic AMP (FIG. 7)” value (“level” for short) was “raising the level of intra-platelet cellular cyclic AMP”. Besides, in the data set on thoracic aorta, PGI2, the PGI2 stood at 0.19 ± 0.04 ng/mg wet tissue. In addition, the “hemorrhage in the stomach” value with dog's stomach was “no hemorrhage in the stomach was found”. The “Absorbance at 620 nm (dye leakage)” value in the data set with male Sprague-Dowley rats came to 0.155. Further, in data set [5], the “Number of revertant colonies TA 98” value was 5 number per plate. Moreover, in the data set with male SHR rats [6], the “Alteration of blood pressure, Case (b)” value is listed as -5 mmHg and the “Alteration of blood pressure, Case (a)” value is reported as -20 mmHg.
In the case of `O=C(O)c1ccc(NC2OC[C@@H](O)[C@H](O)[C@H]2O)cc1` (stereo partly drawn) [Specimen No. 7, Sodium p-aminobenzoate-N--D-xyloside], the “Number of revertant colonies TA 100” value in data set [1] is listed as 58 number per plate. In data set [2], this molecule showed a 50% lethal dose (LD50) at 168 h of 11800 mg/kg. Besides, in the data set with male SHR rats [3], the “Content of 6-keto-PGF1-α in blood” value was found to be 6.5 ng/mL and the Blood pressure is 160 mmHg. Also, the “level” value in data set [4] is “raising the level of intra-platelet cellular cyclic AMP”. The PGI2 in the data set with thoracic aorta, PGI2 is recorded as 0.22 ± 0.02 ng/mg wet tissue. Further, in the data set with dog's stomach, the “hemorrhage in the stomach” value is given as “no hemorrhage in the stomach was found”. For the same molecule, the “Absorbance at 620 nm (dye leakage)” value with male Sprague-Dowley rats amounted to 0.152. In addition, the “Number of revertant colonies TA 98” value in [5] is recorded as 4 number per plate. For the same molecule, in the data set on male SHR rats [6], the “Alteration of blood pressure, Case (b)” value came out at 0 mmHg and the “Alteration of blood pressure, Case (a)” value is given as -20 mmHg.
Consider `C[C@@H]1OC(Nc2ccc(C(=O)O)cc2)[C@H](O)[C@H](O)[C@H]1O` (stereo partly drawn) [Specimen No. 8, Sodium p-aminobenzoate-N--L-rhamnoside], for which, in [1], the “Number of revertant colonies TA 100” value came to 73 number per plate. In data set [2], this molecule had an LD50 at 168 h of 12800 mg/kg. Also, in the data set on male SHR rats [3], the “Content of 6-keto-PGF1-α in blood” value turned out to be 7 ng/mL and the Blood pressure turned out to be 150 mmHg. The “level” value in data set [4] is “raising the level of intra-platelet cellular cyclic AMP”. Besides, the PGI2 in the data set on thoracic aorta, PGI2 was found to be 0.18 ± 0.04 ng/mg wet tissue. Also, the “hemorrhage in the stomach” value with dog's stomach is “no hemorrhage in the stomach was found”. Further, in the data set on male Sprague-Dowley rats, the “Absorbance at 620 nm (dye leakage)” value worked out at 0.162. The “Number of revertant colonies TA 98” value in data set [5] is reported as 4 number per plate. In the data set with male SHR rats [6], the “Alteration of blood pressure, Case (b)” value came out at 0 mmHg and the “Alteration of blood pressure, Case (a)” value is listed as -15 mmHg.

The record behind these values is patent publication US4440757A, “Pharmaceutical composition comprising derivative of aminobenzoic acid for regulating prostaglandin” (priority 1978, dated 1984).
